The values below come from ChEMBL document CHEMBL1143926, “Synthesis of novel analogues of (+)-varitriol via olefin cross-metathesis reaction” (Bioorg Med Chem Lett, 2008).

Activity calls are given as the source filed them. The rule behind the calls is not given here.

Data set [1] is described as follows: Cytotoxicity against mouse RAW2647 cells after 24 hrs by MTT assay. It is filed as cell-based, RAW264.7. Conditions: for GI50 at 24 h: RAW2647 cells; for Activity: raw264.7, 24 h. Background: Tetrazolium assays rely on reduction of a dye to a coloured formazan, in cell work by metabolically active cells.
In the next data set the test system is HT-29. Description: Cytotoxicity against human HT29 cells after 24 hrs by MTT assay. The data set is classed as functional.
The next data set concerns A549. In words: Cytotoxicity against human A549 cells after 24 hrs by MTT assay. The data set is classed as functional, cell-based.
In a further data set the test system is RXF 393. Description: Cytotoxicity against human RXF393 cells. It is filed as functional.
The test system of another data set is T47D. In words: Cytotoxicity against human T47D cells. The data set is classed as functional.
For a further data set, the system named is SNB-75. In words: Cytotoxicity against human SNB75 cells. It is filed as functional.
The subject of another data set is DU-145. In words: Cytotoxicity against human DU145 cells. The data set is classed as functional.
A further data set has as its system HL-60. Description: Cytotoxicity against human HL60 cells. It is filed as functional.
The subject of a further data set is CCRF-CEM. In words: Cytotoxicity against human CCRF-CEM cells. It is filed as functional.
The test system of the next data set is OVCAR-5. Description: Cytotoxicity against human OVCAR5 cells. It is filed as functional.
Another data set deals with SNB-19. Description: Cytotoxicity against human SNB19 cells. The data set is classed as functional.
Another data set concerns COLO 205. Description: Cytotoxicity against human COLO205 cells. It is filed as functional.

Usually GI50 stands for the concentration that inhibits growth by half. Low values mean greater sensitivity of the cells, high ones lower sensitivity of the cells. With `COc1cc(/C=C/[C@H]2OC(OC)[C@@H]3OC(C)(C)O[C@H]23)ccc1O` (stereo not given in full), in data set [1], growth was halved (GI50 at 24 h) at 835 µM. Also, the GI50 in the data set with HT-29 is 13.2 10^-4 M. For the same molecule, the result with A549 was inactive.
Consider `COc1ccc(/C=C/[C@H]2OC(OC)[C@@H]3OC(C)(C)O[C@H]23)cc1` (stereo not given in full), for which the GI50 at 24 h in [1] amounted to 696 µM. In the data set on HT-29, the GI50 was 4.7 10^-4 M. Further, the result in the data set on A549 was inactive.
The corresponding values for `COc1cccc(/C=C/[C@H]2O[C@@H]3OC(C)(C)O[C@@H]3[C@H]2O)c1` are 671 µM, 17.5 10^-4 M and “inactive”.
For `COc1cc(/C=C/[C@H]2O[C@@H]3OC(C)(C)O[C@@H]3[C@H]2O)cc(OC)c1`, in [1], the Activity entry was “Not Active”. The GI50 in the data set with HT-29 is 20 10^-4 M. The outcome with A549 was inactive.
In the case of `COc1cccc(/C=C/[C@H]2OC(OC)[C@@H]3OC(C)(C)O[C@H]23)c1` (stereo not given in full), the Activity entry in data set [1] is “Not Active”. For the same molecule, the result with HT-29 and in the data set with A549 was inactive.
With `COc1cccc(/C=C/C2OC(C)C(O)C2O)c1CO` (racemic) [(+/-)-VARITRIOL], the GI50 worked out at 163 nM in the data set with RXF 393; 210 nM in the data set on T47D; 244 nM in the data set on SNB-75; 1100 nM with DU-145; 25.2 µM in the data set on HL-60; 26 µM in the data set on CCRF-CEM. Further, the GI50 in the data set with OVCAR-5 worked out at 68.2 µM; in the data set on SNB-19, 91.3 µM; in the data set on COLO 205 it was 95.9 µM.
In turn, `COc1cc(/C=C/[C@H]2OC(OC)[C@@H]3OC(C)(C)O[C@H]23)cc(OC)c1` (stereo not given in full) yielded a GI50 at 24 h in [1] of 541 µM. Moreover, the result with HT-29 and in the data set on A549 was inactive.
Consider `COc1cc(/C=C/[C@H]2OC(OC)[C@@H]3OC(C)(C)O[C@H]23)cc2c1OCO2` (stereo not given in full), for which, in [1], the GI50 at 24 h came to 462 µM. The GI50 in the data set with HT-29 is 14 10^-4 M. The result with A549 was inactive.
